Each structure is given as a SMILES string.

What is called Kd is the equilibrium constant for the complex coming apart. A low value points to tighter binding.

One experiment has as its target T1, purified calf MAP2 (Bos taurus, UniProt A0A3Q1NAK9).
T1 construct: from tissue; host or cells: calf brain microtubules, heat denaturation and Sephacryl 300 gel filtration
As to the kind of experiment: Equilibrium binding of PREG [3H] to purified calf MAP2. How it is done: (§1) The tau and MAP2 proteins are purified according to the protocol of Fellous et al. (12) by heat denaturation of the microtubules and gel filtration on a column, Sephacryl 300® being used instead of the Ultrogel ACA 34. The tau proteins are then Further purified according to the method of Lindwall and Cole (15).
(§2) Purified calf brain tubulin (90 μg/ml), MAP2 (45 μg/ml) or tau protein (25 μg/ml) is incubated with 100 nM of PREG [^3H], with or without a 1,000-fold excess of non-radioactive PREG.
(§3) The B/U values are reported in FIG. 5 as a function of B in nM, (-∘-) representing equilibrium binding of purified calf brain MAP2, and (-∘-) the equilibrium binding of purified calf brain MAP2 associated with purified calf brain tubulin (for the experimental details, see FIG. 1).

In the next experiment the test system is fetal rat brain neurons. As to the kind of experiment: Immunocytochemistry of fetal rat brain neuron cultures. It counts as cell-based. Particulars: 1 μM for 2 days. How it is done: Primary cultures of E17 fetal neurons are performed according to El-Etr et al. (16). Briefly, this method consists of spreading the dissociated cells (200,000 cells/cm^2) on glass plates covered with poly-1-ornithine and cultured in a completely defined medium in 5% CO2 at 37° C. The culture conditions used permit a practically pure neuron population to be obtained.
24 h after seeding, 1 micromolar pregnenolone (final ethanol concentration 0.01%), or the solvent alone, is added and cultures are continued for 2 days. The cells are fixed in 4% paraformaldehyde, then frozen at −80° C. The cells are duly rehydrated by passages of 5 min in ethanol at concentrations of 100, 90 and 70%. After 2 washings in PBS, for 5 min, the cells are incubated in PBS containing 3% of BSA and 0.1% of Triton X100®, at ambient temperature for 1 h.
After 4 washings in PBS, the cells are incubated at 37° C. for 1 h, then at 4° C. for about 14 h, in the presence of either anti-α-tubulin monoclonal antibody diluted {fraction (1/2,000)}, or anti-MAP2 monoclonal antibody diluted {fraction (1/1,000)}, or anti-double-cortin antiserum diluted 1/300.
After 3 washings in PBS, the secondary antibody is added at ambient temperature, for 45 minutes. […]

The test system of experiment [1] is calf brain tubulin assembled with calf brain MAP2. As to the kind of experiment: Electron microscopy of microtubules polymerized in the presence of PREG. It is filed as biochemical. Particulars: 500 nM of PREG. Here is the method: After the polymerization of the microtubules induced by MAP2 in the absence or presence of the substance to be tested, an aliquot portion of the experimental sample is deposited on a hydrophilic grid (300 mesh) covered with carbon. The grids are treated with an aqueous solution of 1% uranyl acetate. Observations are performed with a Phllips CM12 electron microscope.
Analysis was performed of microtubules polymerized in the presence of PREG to verify their appearance.

In another experiment the target is adult microtubules (Rattus norvegicus, UniProt P15146). As to the kind of experiment: Binding of PREG [3H] to purified adult rat brain microtubules. Here is the method: The microtubules are prepared starting from calf brain or adult or fetal rat brain according to an assembly/disassembly method, as a function of the temperature, in vitro (12).
The binding of PREG [^3H] to microtubules prepared by polymerization/depolymerization cycles was determined.

Another experiment deals with MAP2-tubulin copolymers (Bos taurus, UniProt A0A3Q1NAK9). As to the kind of experiment: Equilibrium binding of PREG [3H] to MAP2-tubulin copolymers. More on the design: species or system calf. How it is done: The calf tubulin is purified according to the protocol of Weingarten et al. (13), but the step using phosphocellulose is replaced by a cation exchange column chromatography (Fractogel, Merck) (14). The microtubules and the tubulin are prepared in L buffer, supplemented with 1 mM of GTP (buffer A).
as §1, §2, §3

Experiment [2] concerns the target fetal rat brain cytosol binding sites of pregnenolone (Rattus norvegicus, UniProt P15146). As to the kind of experiment: Equilibrium binding of PREG [3H] to fetal brain cytosol. Particulars: mean±standard error, n=3. How it is done: Fetal brains are collected, and are rinsed, after the meninges have been removed, with a homogenization buffer at 4° C. [10 mM of Tris-HCl, at pH 8.5, containing 1.5 mM of EDTA, 1 mM of dithiothreitol, 10% of glycerol, Complete®, (a mixture of protease inhibitors, Roche Molecular Biochemical); termed TEDG buffer].
The supernatant is then centrifuged at 100,000 g for 1 h at 4° C. The samples are used immediately for the trials, or are stored in liquid nitrogen until the moment of their use.
Just before the binding trial, each sample is purified with a dextran-carbon suspension, and 2 ml samples of supernatant (purified cytosol) are added to a series of tubes containing 1 to 500 nM PREG [^3H], with or without unlabeled steroid in 1,000-fold excess.
The tubes are incubated at 45° C. for 30 min. The separation of bound and free steroid was carried out on a Sephadex LH-20® (Amersham Pharmacia Biotech) mini-column.
The counting of the radioactivity in the flasks was performed in a liquid scintillation spectrometer with attenuation correction (Tri-Carb 2100 TR®, Packard).
The equilibrium binding data are analyzed with the Mac Ligand program, adapted from Munson and Rodbard (17). […]
The bound steroid is separated by gel filtration on Sephadex LH20® at 0-4° C. The binding constants are determined with the Mac Ligand program.

Chain of MAP2-tubulin copolymers (A0A3Q1NAK9 1-1867): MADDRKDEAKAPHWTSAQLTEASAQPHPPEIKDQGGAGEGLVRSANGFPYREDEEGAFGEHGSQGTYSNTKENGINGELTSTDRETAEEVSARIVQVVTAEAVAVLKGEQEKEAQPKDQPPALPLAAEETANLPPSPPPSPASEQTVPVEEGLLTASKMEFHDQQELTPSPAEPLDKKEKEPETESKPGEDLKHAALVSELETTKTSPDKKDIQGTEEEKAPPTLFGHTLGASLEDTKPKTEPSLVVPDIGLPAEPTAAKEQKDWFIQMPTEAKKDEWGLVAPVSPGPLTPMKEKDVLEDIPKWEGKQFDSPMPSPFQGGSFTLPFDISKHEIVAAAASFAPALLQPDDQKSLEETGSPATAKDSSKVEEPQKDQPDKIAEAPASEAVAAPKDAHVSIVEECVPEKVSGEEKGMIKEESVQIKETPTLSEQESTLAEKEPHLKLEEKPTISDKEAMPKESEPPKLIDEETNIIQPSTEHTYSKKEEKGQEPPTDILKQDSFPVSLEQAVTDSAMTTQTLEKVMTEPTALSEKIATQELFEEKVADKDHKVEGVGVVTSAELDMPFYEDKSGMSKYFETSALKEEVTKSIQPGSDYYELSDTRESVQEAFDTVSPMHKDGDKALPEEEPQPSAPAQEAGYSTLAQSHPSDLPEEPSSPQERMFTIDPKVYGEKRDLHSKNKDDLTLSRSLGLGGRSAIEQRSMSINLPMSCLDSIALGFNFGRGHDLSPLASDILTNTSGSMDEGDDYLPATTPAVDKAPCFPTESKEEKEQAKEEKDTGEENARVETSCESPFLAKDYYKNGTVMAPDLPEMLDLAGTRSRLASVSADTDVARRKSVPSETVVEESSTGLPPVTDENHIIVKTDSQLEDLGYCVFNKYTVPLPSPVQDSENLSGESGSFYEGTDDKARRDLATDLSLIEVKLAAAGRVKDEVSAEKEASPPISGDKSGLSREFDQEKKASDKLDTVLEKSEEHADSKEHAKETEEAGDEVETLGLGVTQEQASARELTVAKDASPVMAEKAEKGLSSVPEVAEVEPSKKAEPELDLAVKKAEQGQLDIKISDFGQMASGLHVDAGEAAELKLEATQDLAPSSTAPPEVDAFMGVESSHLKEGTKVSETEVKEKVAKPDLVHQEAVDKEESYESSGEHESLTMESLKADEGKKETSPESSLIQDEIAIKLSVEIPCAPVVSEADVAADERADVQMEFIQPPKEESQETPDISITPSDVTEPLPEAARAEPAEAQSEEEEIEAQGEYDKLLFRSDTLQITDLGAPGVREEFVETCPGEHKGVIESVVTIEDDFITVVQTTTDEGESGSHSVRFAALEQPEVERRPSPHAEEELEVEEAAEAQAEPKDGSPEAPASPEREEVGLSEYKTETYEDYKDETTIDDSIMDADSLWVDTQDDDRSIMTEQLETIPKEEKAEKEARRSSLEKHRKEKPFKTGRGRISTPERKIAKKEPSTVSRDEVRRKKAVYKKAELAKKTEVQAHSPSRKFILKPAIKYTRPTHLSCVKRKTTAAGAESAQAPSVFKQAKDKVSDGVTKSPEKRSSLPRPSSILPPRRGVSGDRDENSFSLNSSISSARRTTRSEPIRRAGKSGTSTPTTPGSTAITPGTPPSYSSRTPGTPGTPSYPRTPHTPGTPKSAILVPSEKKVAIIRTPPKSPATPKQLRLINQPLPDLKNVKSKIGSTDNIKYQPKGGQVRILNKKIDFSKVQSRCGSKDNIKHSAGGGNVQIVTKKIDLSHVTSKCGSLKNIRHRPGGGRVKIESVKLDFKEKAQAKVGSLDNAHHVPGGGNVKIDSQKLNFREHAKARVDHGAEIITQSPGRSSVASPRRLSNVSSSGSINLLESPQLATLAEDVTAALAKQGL
T1 sequence (A0A3Q1NAK9 1-1867): as above
Chain of fetal rat brain cytosol binding sites of pregnenolone (P15146 whole entry): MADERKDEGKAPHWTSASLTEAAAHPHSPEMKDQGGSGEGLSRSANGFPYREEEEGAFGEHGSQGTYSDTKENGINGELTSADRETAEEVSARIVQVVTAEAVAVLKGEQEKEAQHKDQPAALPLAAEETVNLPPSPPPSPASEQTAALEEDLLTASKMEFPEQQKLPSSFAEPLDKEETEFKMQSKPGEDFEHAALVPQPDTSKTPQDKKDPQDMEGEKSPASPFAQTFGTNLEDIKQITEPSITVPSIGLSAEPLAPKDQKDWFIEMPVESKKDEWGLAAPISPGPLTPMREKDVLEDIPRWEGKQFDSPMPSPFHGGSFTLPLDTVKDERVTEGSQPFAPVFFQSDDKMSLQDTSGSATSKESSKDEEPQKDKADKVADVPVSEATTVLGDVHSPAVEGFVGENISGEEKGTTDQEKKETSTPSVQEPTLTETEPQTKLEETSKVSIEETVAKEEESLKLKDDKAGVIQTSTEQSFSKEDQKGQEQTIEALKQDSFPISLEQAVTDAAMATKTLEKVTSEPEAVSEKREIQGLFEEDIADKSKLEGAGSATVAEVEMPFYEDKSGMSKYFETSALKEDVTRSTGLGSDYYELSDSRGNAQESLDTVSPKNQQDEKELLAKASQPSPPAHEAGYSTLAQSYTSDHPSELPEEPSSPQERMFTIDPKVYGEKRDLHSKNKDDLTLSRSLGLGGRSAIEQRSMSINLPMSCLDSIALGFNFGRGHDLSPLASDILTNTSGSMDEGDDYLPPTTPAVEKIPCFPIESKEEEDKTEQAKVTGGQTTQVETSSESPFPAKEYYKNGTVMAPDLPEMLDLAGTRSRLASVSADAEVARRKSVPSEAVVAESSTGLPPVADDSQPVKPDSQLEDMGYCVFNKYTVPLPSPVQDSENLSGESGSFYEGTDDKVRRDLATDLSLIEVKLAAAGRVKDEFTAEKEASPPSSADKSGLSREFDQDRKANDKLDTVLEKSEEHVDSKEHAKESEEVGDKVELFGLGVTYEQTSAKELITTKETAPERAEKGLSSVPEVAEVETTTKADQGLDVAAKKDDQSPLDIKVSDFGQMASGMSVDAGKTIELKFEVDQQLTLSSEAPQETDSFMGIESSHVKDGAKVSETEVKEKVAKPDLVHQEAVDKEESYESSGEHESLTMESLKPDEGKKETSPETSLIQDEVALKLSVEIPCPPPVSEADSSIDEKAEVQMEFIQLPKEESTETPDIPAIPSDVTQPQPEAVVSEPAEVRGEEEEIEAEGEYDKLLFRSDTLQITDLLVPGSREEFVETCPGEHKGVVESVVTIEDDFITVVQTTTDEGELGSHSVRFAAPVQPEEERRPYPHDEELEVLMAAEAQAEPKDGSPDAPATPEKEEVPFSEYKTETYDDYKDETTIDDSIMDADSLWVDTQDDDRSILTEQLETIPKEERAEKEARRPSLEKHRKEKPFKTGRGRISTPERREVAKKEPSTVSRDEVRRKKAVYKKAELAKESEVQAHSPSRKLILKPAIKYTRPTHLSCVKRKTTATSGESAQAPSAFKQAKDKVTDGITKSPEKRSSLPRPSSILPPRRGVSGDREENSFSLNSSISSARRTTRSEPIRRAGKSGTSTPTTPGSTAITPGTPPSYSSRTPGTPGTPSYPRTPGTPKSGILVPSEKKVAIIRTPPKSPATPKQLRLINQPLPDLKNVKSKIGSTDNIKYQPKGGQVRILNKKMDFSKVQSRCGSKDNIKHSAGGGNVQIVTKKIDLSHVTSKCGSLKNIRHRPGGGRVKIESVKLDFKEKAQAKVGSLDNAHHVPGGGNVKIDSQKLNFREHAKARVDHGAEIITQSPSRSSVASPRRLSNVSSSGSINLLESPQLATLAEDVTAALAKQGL
Chain of adult microtubules (Q3KRE8 whole entry): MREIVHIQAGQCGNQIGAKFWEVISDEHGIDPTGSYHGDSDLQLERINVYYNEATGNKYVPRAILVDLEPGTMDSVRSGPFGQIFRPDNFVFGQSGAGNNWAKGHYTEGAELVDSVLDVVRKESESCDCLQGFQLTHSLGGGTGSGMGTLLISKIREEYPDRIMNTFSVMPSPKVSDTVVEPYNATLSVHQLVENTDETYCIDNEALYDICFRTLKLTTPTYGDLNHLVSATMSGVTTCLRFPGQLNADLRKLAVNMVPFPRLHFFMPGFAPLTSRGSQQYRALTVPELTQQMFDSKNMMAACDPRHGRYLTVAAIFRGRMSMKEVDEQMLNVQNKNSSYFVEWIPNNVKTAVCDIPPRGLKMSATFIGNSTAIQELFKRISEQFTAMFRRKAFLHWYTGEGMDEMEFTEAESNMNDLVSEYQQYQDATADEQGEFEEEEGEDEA
Chain of adult microtubules (P68370 whole entry, further chain): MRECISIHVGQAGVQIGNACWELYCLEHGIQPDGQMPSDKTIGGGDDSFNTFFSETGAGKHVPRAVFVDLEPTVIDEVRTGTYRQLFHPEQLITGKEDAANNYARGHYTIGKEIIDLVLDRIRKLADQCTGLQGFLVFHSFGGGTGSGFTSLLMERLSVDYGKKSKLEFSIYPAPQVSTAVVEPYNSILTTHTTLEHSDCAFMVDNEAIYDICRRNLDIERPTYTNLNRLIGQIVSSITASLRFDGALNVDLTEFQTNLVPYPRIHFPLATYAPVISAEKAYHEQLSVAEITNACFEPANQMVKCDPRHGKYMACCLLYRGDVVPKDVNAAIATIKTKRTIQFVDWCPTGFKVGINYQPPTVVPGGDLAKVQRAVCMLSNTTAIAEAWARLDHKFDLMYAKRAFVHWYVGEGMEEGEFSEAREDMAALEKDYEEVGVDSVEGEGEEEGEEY
Chain of adult microtubules (P15146 whole entry): as the sequence (P15146 whole entry) above

`CC(=O)C1CCC2C3CC=C4CC(O)CCC4(C)C3CCC12C` (stereo not drawn) [Pregnenolone]: at purified calf MAP2, the Bmax is recorded as 16 pmol/mg of MAP2 and binding was put at a Kd of 39.2 nM. In addition, in the experiment with fetal rat brain neurons, the “immunolabeling of MAP2” value was “increases the immunolabeling of MAP2 of the cell bodies and induces its extension to close nerve cells”; the “staining with anti-α tubulin or anti-double-cortin antibodies” value is “does not show any difference”. The “structure of the microtubules” value in experiment [1] is “remains completely normal”. The Bmax on adult microtubules is 3.4 pmol/mg of protein. Moreover, on MAP2-tubulin copolymers, the Bmax is given as 135 pmol/mg of MAP2 and the dissociation constant (Kd) worked out at 44 nM. For the same compound, the “maximum concentration of binding sites” value in experiment [2] is 1.2±0.1 pmol/mg of protein.

The record behind these values is patent US20030125311A1, “Compounds capable of binding with the cytoskeleton” (priority 2002, published 2003).
